Calls of active or inactive are those of the source. The calls are words filed in the database; no cut-off is given here.
Experiments:
[1] = target: T1, Muscarinic acetylcholine receptor M1 (Homo sapiens) (UniProt P11229); assay: Irreversible binding to human M1 mAChR expressed in FlpIn-CHO cells assessed as receptor alkylation incubated for 30 mins prior to [3H]NMS addition measured 4 hrs after compound washout by whole cell radioligand displacement analysis relative to vehicle-treated control; format: cell-based
T1 sequence (whole entry): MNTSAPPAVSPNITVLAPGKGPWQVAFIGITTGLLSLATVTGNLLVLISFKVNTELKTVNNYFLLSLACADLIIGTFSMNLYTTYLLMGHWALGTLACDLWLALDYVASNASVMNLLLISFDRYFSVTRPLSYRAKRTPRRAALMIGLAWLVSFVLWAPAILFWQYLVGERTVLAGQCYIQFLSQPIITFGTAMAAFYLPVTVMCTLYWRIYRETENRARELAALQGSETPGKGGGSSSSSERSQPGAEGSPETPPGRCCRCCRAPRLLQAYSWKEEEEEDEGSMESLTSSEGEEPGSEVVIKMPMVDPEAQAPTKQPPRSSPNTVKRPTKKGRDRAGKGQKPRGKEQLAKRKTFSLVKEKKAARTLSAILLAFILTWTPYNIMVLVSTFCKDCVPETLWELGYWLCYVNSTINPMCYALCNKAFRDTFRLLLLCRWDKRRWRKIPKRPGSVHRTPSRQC

[2] = target: T1, Muscarinic acetylcholine receptor M1 (Homo sapiens); assay: Irreversible binding to human M1 mAChR expressed in FlpIn-CHO cell membrane assessed as receptor alkylation incubated for 30 mins prior to [3H]NMS addition measured after 4 hrs by radioligand displacement analysis (reference value: 100%); format: cell membranes
[3] = target: T2, Muscarinic acetylcholine receptor M1 (Homo sapiens, UniProt P11229); assay: Activation of human M1 mAChR expressed in FlpIn-CHO cells assessed as […] ERK1/2 phosphorylation incubated for 5 mins by Alphascreen assay; format: cell-based
T2 sequence (P11229 whole entry): T1 sequence (whole entry)

[4] = target: T1, Muscarinic acetylcholine receptor M1 (Homo sapiens); assay: Displacement of [3H]NMS from human M1 mAChR expressed in FlpIn-CHO cells after 4 hrs by microplate counting analysis; format: cell-based

Compound	Activity [1]	Bmax [2]	EC50 [3]	pKb [4]
COc1ccc(Cn2cc(C(=O)O)c(=O)c3ccccc32)cc1	inactive	90.8%	–	–
O=C(O)c1cn(Cc2ccc(N=C=S)cc2)c2ccccc2c1=O	inactive	50%	389 nM	5.22
O=C(O)c1cn(Cc2ccc(N3C(=O)C=CC3=O)cc2)c2ccccc2c1=O	–	–	417 nM	5.09
O=C(O)c1cn(Cc2ccc(S(=O)(=O)F)cc2)c2ccccc2c1=O	–	–	316 nM	3.97
O=C(CBr)Nc1ccc(Cn2cc(C(=O)O)c(=O)c3ccccc32)cc1	–	–	1580 nM	4.72

Reference: ChEMBL document CHEMBL3286117, “Synthesis and pharmacological evaluation of analogues of benzyl quinolone carboxylic acid (BQCA) designed to bind irreversibly to an allosteric site of the M ₁ muscarinic acetylcholine receptor” (J Med Chem, 2014)
